Results: EP0405436B1, “Dihetero nitrogen-containing cycloheteroethanoanthracene derivatives as antipsychotic agents” (G.D. Searle & Co., priority 1989, dated 1991)
Where two headings read alike, the source gives them in different places. Values belong to the compound of their own block, whether it stands above or below them.

Key:
sigma receptor = sigma receptor (Rattus norvegicus, UniProt Q9R0C9); format: binding, male Sprague-Dawley rats
Procedure: To determine the effects of the compounds in a sigma receptor assay, crude membrane preparations were prepared as follows. Brains from male Sprague-Dawley rats were homogenized in 10 volumes (wt/vol) of 0.32 M sucrose, using a Polytron grinder. The homogenate was centrifuged at 900 X G for 10 minutes at 4°C. The supernatant was collected and centrifuged at 22,000 X g for 20 minutes at 4°C. The pellet was resuspended in 10 volumes of 50 mM Tris/HCl buffer (pH 7.4) and centrifuged at 22,000 X g for 20 minutes at 4°C. The pellet was resuspended in 5 mM Tris/HCl buffer (pH 7.4) to give a final concentration of 250 mg/ml of the crude material. Incubation tubes were prepared in triplicate and contained 0.1 ml of tissue suspension, 2 nM of [³H]-(+)-1-propyl-3-(3-hydroxyphenyl)piperidine {[³H]-3-(+)-PPP}, and varying concentrations of the displacing ligand (0.1-1000 nM) in a final volume of 0.5 ml. After a 1 hr incubation at room temperature, the contents of the test tubes were filtered through GS filter paper which had been presoaked for at least 2 hours in 0.05% polyethyleneimine. The test tubes were rinsed three times with Tris/HCl buffer. Radioactivity on the filters was determined using […] [Biochem. Pharmacol., 22, 3099-3108, 1973].

[1] = tested on: apomorphine-induced climbing; assay: Blockade of apomorphine-induced climbing; format: in vivo, Swiss-Webster mice; conditions: Mus musculus; mice, i.p. or s.c. pretreatment; 2 mg/kg apomorphine s.c.; rated at 10 and 20 minutes; read-out: Blockade of Apomorphine-induced Climbing ED₅₀
Procedure: Compounds of the invention were evaluated for their ability to block apomorphine-induced climbing. The evaluation of the compounds followed the method outlined by Protais [Psychopharmacol., 50, 1-6, 1976]. Swiss-Webster mice, weighing 20-25 g, are pretreated with the compounds of the invention by i.p. or s.c. administration at various times before 2 mg/kg apomorphine is administered s.c in a volume of 1 ml/kg. All test compounds are administered in a volume of 10 ml/kg. Mice are rated at 10 and 20 minutes after apomorphine administration using the following rating scale: (0) forepaws on the floor, (1) forefeet holding the bars, and (2) four paws holding bars. Dose-response curves are analyzed by a computerized Finney assay [Statistical Methods in Biological Assays, 2nd Edn., Hatner Pub. Co., New York (1964)].

[2] = read-out: Ki apparent (nM) (units ± SEM); rat brain membranes, 2 nM [³H]-3-(+)-PPP, 1 hr at room temperature, displacing ligand 0.1-1000 nM

Chain of sigma receptor (Q9R0C9 whole entry): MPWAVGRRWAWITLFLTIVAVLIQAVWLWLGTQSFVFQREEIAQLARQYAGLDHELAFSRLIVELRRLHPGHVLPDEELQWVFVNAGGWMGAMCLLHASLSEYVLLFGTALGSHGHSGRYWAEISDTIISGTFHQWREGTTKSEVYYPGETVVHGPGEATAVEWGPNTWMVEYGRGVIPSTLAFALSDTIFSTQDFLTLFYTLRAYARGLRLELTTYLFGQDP

Ki (sigma receptor; rat brain membranes, 2 nM [³H]-3-(+)-PPP, 1 hr at room temperature, displacing ligand 0.1-1000 nM; read-out: Ki apparent (nM) (units ± SEM)): > 1000 nM
Compound: CN1CCN(C(=O)C2CC3c4ccccc4C2c2ccccc23)CC1 (stereo not drawn) [Compound No. 5, reference compound]

Compound: c1ccc2c(c1)C1CC(CN3CCN4CCCC4C3)C2c2ccccc21 (stereo not drawn) [Compound No. 4, 4-[(9,10-dihydro-9,10-ethanoanthracenyl)methyl]-1,4-diazabicyclo[4.3.0]nonane]
Ki (sigma receptor; [2]): 20 ± 3 nM

Compound: c1cnc(N2CCN(CC3CC4c5ccccc5C3c3ccccc34)CC2)nc1 (stereo not drawn) [Compound No. 3, 4-[(9,10-Dihydro-9,10-ethanoanthracenyl)methyl]-1-(2-pyrimidyl)piperazine]
Ki (sigma receptor; [2]): > 1000 nM

Compound: OCCN1CCN(CC2CC3c4ccccc4C2c2ccccc23)CC1 (stereo not drawn) [Compound No. 2, 4-[(9,10-dihydro-9,10-ethanoanthracenyl)methyl]-1-(2-hydroxyethyl)-piperazine]
ED50 [1]: 1 mg/kg | Ki (sigma receptor; [2]): 21 ± 6 nM

Compound: c1ccc(CN2CCN(CC3CC4c5ccccc5C3c3ccccc34)CC2)cc1 (stereo not drawn) [Compound No. 6, 4-[(9,10-Dihydro-9,10-ethanoanthracenyl)methyl]-1-benzylpiperazine]
ED50 [1]: 10 mg/kg | Ki (sigma receptor; [2]): 98 ± 18 nM

Compound: CN1CCN(CC2CC3c4ccccc4C2c2ccccc23)CC1 (stereo not drawn) [Compound No. 1, 4-[(9,10-Dihydro-9,10-ethanoanthracenyl)methyl]-1-methylpiperazine]
ED50 [1]: 1 mg/kg | Ki (sigma receptor; [2]): 120 ± 20 nM
